#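 Cells were grown in 96-well plates and exposed to each compound for 48 hours at five concentrations; endpoints were interpolated linearly between bracketing concentrations, or set to the highest concentration if not reached. Here, GI50 denotes the concentration required for 50% inhibition of growth. TGI denotes the concentration required for complete inhibition of growth.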
# Assays:
# Experiment in all cases: DTP human tumour cell line panel, 48 h
# HCT-15 colon = tested on: HCT-15 colon
# SK-MEL-5 melanoma = tested on: SK-MEL-5 melanoma
# SK-OV-3 ovarian = tested on: SK-OV-3 ovarian
# SF-295 CNS = tested on: SF-295 CNS
# IGROV1 ovarian = tested on: IGROV1 ovarian
# HT29 colon = tested on: HT29 colon
# OVCAR-3 ovarian = tested on: OVCAR-3 ovarian
# SK-MEL-2 melanoma = tested on: SK-MEL-2 melanoma
# K-562 leukemia = tested on: K-562 leukemia
# SF-539 CNS = tested on: SF-539 CNS
SMILES,GI50 (HCT-15 colon),TGI (HCT-15 colon),GI50 (SK-MEL-5 melanoma),TGI (SK-MEL-5 melanoma),GI50 (SK-OV-3 ovarian),TGI (SK-OV-3 ovarian),GI50 (SF-295 CNS),TGI (SF-295 CNS),GI50 (IGROV1 ovarian),TGI (IGROV1 ovarian),GI50 (HT29 colon),TGI (HT29 colon),GI50 (OVCAR-3 ovarian),TGI (OVCAR-3 ovarian),GI50 (SK-MEL-2 melanoma),TGI (SK-MEL-2 melanoma),GI50 (K-562 leukemia),TGI (K-562 leukemia),GI50 (SF-539 CNS),TGI (SF-539 CNS)
Nc1nc(OCc2ccccc2)nc2[nH]ncc12,30.9 µM,> 100 µM,14.9 µM,28.3 µM,18.6 µM,49.8 µM,16.9 µM,31.1 µM,32.5 µM,> 100 µM,28.6 µM,77.6 µM,11.5 µM,25.2 µM,20.3 µM,47.9 µM,19.7 µM,> 100 µM,23.3 µM,47.7 µM
C[C@H](CS(C)(=O)=O)Nc1ncc2cc(Oc3ccc(F)cc3F)c(=O)n(C)c2n1,> 25 µM,> 25 µM,> 25 µM,> 25 µM,> 25 µM,> 25 µM,> 25 µM,> 25 µM,> 25 µM,> 25 µM,> 25 µM,> 25 µM,> 25 µM,> 25 µM,> 25 µM,> 25 µM,> 25 µM,> 25 µM,> 25 µM,> 25 µM
COC(=O)[C@]1(C)CCC[C@@]2(C)C1CCC1=C[C@@]3(C(C)C)CC[C@]12OO3 (stereo not given in full),–,> 100 µM,–,33.3 µM,–,> 100 µM,–,64.4 µM,–,> 100 µM,–,29.5 µM,–,> 100 µM,–,> 100 µM,–,> 100 µM,–,47.5 µM
Clc1ccc(CN2COc3c(cc(Cl)c4cccnc34)C2)cc1,–,13.5 µM,–,8.92 µM,–,13.3 µM,–,7.1 µM,–,8 µM,–,24.7 µM,–,6.84 µM,–,3.87 µM,–,3.74 µM,–,4.92 µM
CCO[C@@H]1C2C=CC(C2)[C@H]1[N+](=O)[O-] (stereo not given in full),–,> 100 µM,–,> 100 µM,–,> 100 µM,–,> 100 µM,–,> 100 µM,–,> 100 µM,–,> 100 µM,–,> 100 µM,–,> 100 µM,–,> 100 µM
Cc1ncc([N+](=O)[O-])n1CCNC(=O)CCCn1cnc([N+](=O)[O-])n1,–,> 100 µM,–,> 100 µM,–,> 100 µM,–,> 100 µM,–,> 100 µM,–,> 100 µM,–,> 100 µM,–,> 100 µM,–,> 100 µM,–,> 100 µM
COC(=O)C(=O)C(C(=O)C=C(C)C)C(=O)C(=O)Nc1cccc(C(C)=O)c1 (stereo not given),–,> 100 µM,–,> 100 µM,–,> 100 µM,–,> 100 µM,–,> 100 µM,–,> 100 µM,–,> 100 µM,–,> 100 µM,–,> 100 µM,–,> 100 µM
CS(=O)(=O)Nc1cc(-c2ccc3ncnc(Nc4ccc5c(cnn5Cc5ccc(F)cc5)c4)c3c2)cnc1Cl,3.21 µM,21.3 µM,1.52 µM,2.89 µM,1.54 µM,5.85 µM,2.06 µM,9.61 µM,0.314 µM,1.71 µM,1.92 µM,12.9 µM,1.1 µM,3.3 µM,1.09 µM,3.28 µM,1.4 µM,12.7 µM,1.5 µM,5.29 µM
